According to US20240201204A1, “Biomarker and Druggable Target of Neurodegeneration” (University Hospitals Cleveland Medical Center, priority 2020, published 2024):

Assays:
axon initial segment = test: Axon initial segment (AIS) degradation after TBI (AnkG, βIV-spectrin staining); type: in vivo, mouse
Method: (§1) Drug preparation and administration: CGP3466B (Sigma-Aldrich, SML1941) was dissolved in DMSO and then diluted in sterile saline. The final working stock was 0.0014 mg/ml for administering the 0.014 mg/kg dose. Intraperitoneal administration of CGP3466B was initiated 15 min or 24 h after injury, and tissues were harvested 6 h (for SNO-GAPDH, SNO-SIRT1 measurement) or 2 weeks (for ac-tau measurement) later, respectively. Salsalate (AdipoGen, AG-CR1-3574) was dissolved in DMSO and then diluted in sterile PBS. The final working stocks were as follows: 2.5 mg/ml (25 mg/kg dose), 1 mg/ml (10 mg/kg dose), 0.5 mg/ml (5 mg/kg dose). Daily intraperitoneal administration of salsalate was initiated 24 hr after injury and continued throughout behavioral testing. P7C3-A20 and FK866 (Sigma-Aldrich, F8557) were first dissolved in 1 vol of DMSO, followed by addition of 4 vol of Kolliphor and vigorously vortexing. The solution was then diluted with 30 vol of filtered 5% dextrose (pH 7.0). EX527 (Selleckchem, S1541) was dissolved in 1% DMSO+30% polyethylene glycol+1% Tween 80. Daily intraperitoneal administration of P7C3-A20 was initiated 24 hr after poly-traumatic brain injury. EX527 (10 mg/kg) was administer once a day and FK866 was treated twice per day, with the first injection given at the same time as P7C3-A20 (20 mg/kg) and the second injection given 6 h later (LoCoco et al., 2017 eLife). Diflunisal was first dissolved in 1 vol of DMSO, followed by addition of 2 vol of Kolliphor and vigorously vortexing. The solution was then diluted with 7 vol of saline to the appropriate concentration for administration at 25, 50, or 100 mg/kg.
(§2) The pressure in the side not containing the mouse was increased to cause membrane rupture at 20 pounds per square inch (PSI), which generates an about 1-2 ms jet airflow of 137.9+/−13.79 kPa that passes through the animal's head. The head remains untethered in a padded holder, while the body is fully shielded by a metal tube. The jet of air produced upon membrane rupture provides a concussive injury, which is followed by acceleration/deceleration of the head and then exposure to the ensuing blast wave within an enclosed space.
Immunohistochemistry: Mice were transcardially perfused with cold 1× phosphate-buffered saline (PBS) followed by 4% paraformaldehyde in PBS at pH 7.4 under anesthesia. Brains were carefully removed and post-fixed in 4% paraformaldehyde overnight at 4° C. Brains were immersed in 30% sucrose in PBS for 72 h at 4° C. and then rapidly frozen in 2-methylbutane pre-cooled to −20° C. with dry ice. Brains were cut coronally (40 μm) and sections were stored in cryoprotective solution (150 mM Ethylene glycol, 100 mM glycerol, 250 mM PBS) at −20° C. For tau and NeuN staining, sections were washed three times with PBS for 5 min and then treated with 0.2% Triton X-100 in PBS for 15 min. Sections were washed with PBS and then incubated with 100 mM glycine for 15 min. After blocking sections using blocking buffer (1% bovine serum albumin, 10% normal goat serum, 0.3 M glycine) for 30 min, primary antibodies (Tau, Invitrogen, #13-6400, 1:100, NeuN, EMD Millipore Cor., #MABN-140, 1:500) were incubated overnight at 4° C. Sections were washed three times with PBS (5 min each) and then incubated with Alexa Fluor 488 goat anti-mouse (Invitrogen, A11001, 1:200) or Alexa Fluor 568 goat anti-rabbit (Life technologies, A11011, 1:200) at room temperature for 2 h. […]

tau = test: Tau mislocalization after TBI (tau and NeuN immunohistochemistry); type: in vivo, mouse
Method: as §1, §2
Immunohistochemistry: Mice were transcardially perfused with cold 1× phosphate-buffered saline (PBS) followed by 4% paraformaldehyde in PBS at pH 7.4 under anesthesia. Brains were carefully removed and post-fixed in 4% paraformaldehyde overnight at 4° C. Brains were immersed in 30% sucrose in PBS for 72 h at 4° C. and then rapidly frozen in 2-methylbutane pre-cooled to −20° C. with dry ice. Brains were cut coronally (40 μm) and sections were stored in cryoprotective solution (150 mM Ethylene glycol, 100 mM glycerol, 250 mM PBS) at −20° C. […]

NAD^+ = test: Brain NAD+ measurement after TBI; type: in vivo, mouse
Method: as §1, with “Diflunisal was first dissolved in 1 vol of DMSO, followed by addition of 2 vol of Kolliphor and vigorously vortexing. The solution was then diluted with 7 vol of saline to the appropriate concentration for administration at 25, 50, or 100 mg/kg.” left out

GAPDH = molecular target: T1, GAPDH (Mus musculus, UniProt P16858); test: S-nitrosylation of GAPDH after TBI (SNO-resin assisted capture, western blot); type: in vivo; settings: P7C3-A20 treatment after TBI
T1 construct: from tissue; host or cells: cerebral cortex of C57BL/6J mice after TBI
Method: as §1, with “The solution was then diluted with 7 vol of saline to the appropriate concentration for administration at 25, 50, or 100 mg/kg.” left out
SNO-resin assisted capture (SNO-RAC): SNO-RAC was performed as described previously (Forrester, 2009). […] After two times centrifugation (20,000 g at 4° C. for 20 min), protein concentration of supernatants was determined using Coomassie protein assay (Thermo Scientific, #1856210). […] SNO-proteins were then eluted with 2× Laemmli Sample Buffer (Bio-Rad Laboratories, Inc., #1610737) with 10% beta-mercaptoethanol (Bio-Rad Laboratories, Inc., #1610710) and analyzed by SDS-PAGE and immunoblotting.

p300/CBP = settings: literature (Shirakawa et al., 2016); cited from earlier work
[1] = test system: dementia, minor cognitive impairment, cognitive decline; settings: about 19,000 subjects, placebo-controlled; cited from earlier work
[2] = co-treatment with P7C3-A20, EX527 10 mg/kg once a day, FK866 twice per day
[3] = P7C3-A20 daily IP from 24 h after TBI

T1 sequence (P16858 whole entry): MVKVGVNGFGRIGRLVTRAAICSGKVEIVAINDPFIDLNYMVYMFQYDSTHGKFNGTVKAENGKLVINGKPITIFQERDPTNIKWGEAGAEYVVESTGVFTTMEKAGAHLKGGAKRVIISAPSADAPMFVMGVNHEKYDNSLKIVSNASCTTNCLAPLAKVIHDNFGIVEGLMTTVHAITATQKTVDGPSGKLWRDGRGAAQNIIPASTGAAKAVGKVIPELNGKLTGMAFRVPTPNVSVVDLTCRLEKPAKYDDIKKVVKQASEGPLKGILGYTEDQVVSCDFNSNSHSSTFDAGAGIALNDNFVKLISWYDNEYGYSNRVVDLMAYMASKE

O=C(/C=C/c1cccnc1)NCCCCC1CCN(C(=O)c2ccccc2)CC1 [FK866]
effect on P7C3-A20 protection from post-TBI AIS degradation (axon initial segment; [2]): This protective effect is blocked
effect on P7C3-A20 protection from post-TBI tau mislocalization (tau; [2]): This protective effect is blocked
effect on P7C3-A20 rescue of NAD^+ levels (NAD^+; FK866 twice per day, co-administered with P7C3-A20 after TBI): blocked

COc1cccc(NCC(F)Cn2c3ccc(Br)cc3c3cc(Br)ccc32)c1 (stereo not drawn) [P7C3-A20, 3,6-dibromo-β-fluoro-N-(3-methoxyphenyl)-9H-carbazole-9-propanamine]
SNO-GAPDH (GAPDH): SNO-GAPDH is not affected
post-TBI AIS degradation (axon initial segment; [3]): protects mice from post-TBI AIS degradation
post-TBI tau mislocalization (tau; [3]): protects mice from post-TBI tau mislocalization
brain NAD^+ levels (NAD^+; P7C3-A20 daily IP from 24 h after TBI, cerebral cortex): rescued normal NAD^+ levels after TBI

CC(=O)Oc1ccccc1C(=O)O [aspirin]
inhibition of p300/CBP (p300/CBP): does not inhibit p300/CBP
incidence of dementia, minor cognitive impairment, or cognitive decline [1]: does not significantly reduce the incidence of dementia, minor cognitive impairment, or cognitive decline
